Assay results as given in ChEMBL document CHEMBL1123916, “Facile synthesis of 2-[(3-aminopropyl)thio]adenosine 5'-diphosphate: a key intermediate for the synthesis of molecular probes of adenosine 5'-diphosphate function” (J Med Chem, 1987).
Calls of active or inactive are those of the source.

Experiments:
Type in all cases: functional, organism-based
Homo sapiens [1] = species on record: Homo sapiens; assay: Agonistic activity against platelet aggregation; Effective agonist; conditions: filed as agonist
Homo sapiens [2] = species on record: Homo sapiens; assay: Reversible aggregation effect at low concentration; Active
Homo sapiens [3] = species on record: Homo sapiens; assay: Biphasic response at low concentration; Active

Measured: Activity

Nc1ncnc2c1ncn2[C@@H]1O[C@H](COP(=O)(O)OP(=O)(O)O)[C@@H](O)[C@H]1O
active: Homo sapiens [1] Agonist | Homo sapiens [2] | Homo sapiens [3]
